Source: patent US10294202B2, “Pyrrolidinones as herbicides” (FMC Corporation, priority 2013, dated 2019)

Assays:
[1] = tested on: barnyardgrass; experiment: Test A pre-/postemergence herbicide test; type: in vivo, Echinochloa crus-galli
Method in brief: (§1)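 Visual 0–100 ratings (100 = complete control) made about 10 days after treatment, greenhouse-held plants compared with untreated controls. Treatments: postemergence sprays on one- to two-leaf plants (2–10 cm tall) and preemergence directed soil sprays after planting in loam–sand, chemicals formulated in non-phytotoxic solvent containing surfactant.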

[2] = tested on: pigweed; experiment: Test A pre-/postemergence herbicide test; type: in vivo, Amaranthus retroflexus
Method in brief: as §1

[3] = tested on: corn; experiment: Test C pre-/postemergence herbicide test; type: in vivo, Zea mays; conditions: Preemergence; for Corn plant response rating: 31 g ai/ha
Method in brief: (§2)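 Greenhouse plants scored visually against untreated controls 13–15 days after treatment, 0 = no effect, 100 = complete control. Test chemicals in a non-phytotoxic solvent with surfactant were applied either to soil (loam/sand) at planting or to foliage of 1- to 4-leaf plants, 2–18 cm tall.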

[4] = tested on: nutsedge, yellow; experiment: Test C pre-/postemergence herbicide test; type: in vivo, Cyperus esculentus; conditions: Preemergence; for Nutsedge, Yellow plant response rating: 31 g ai/ha, scale 0 to 100, 0 is no effect and 100 is complete control
Method in brief: as §2

[5] = tested on: ragweed; experiment: Test C pre-/postemergence herbicide test; type: in vivo, Ambrosia elatior; conditions: Preemergence; for Ragweed plant response rating: 31 g ai/ha, scale 0 to 100, 0 is no effect and 100 is complete control
Method in brief: as §2

[6] = tested on: kochia; experiment: Test C pre-/postemergence herbicide test; type: in vivo, Kochia scoparia; conditions: Preemergence; for Kochia plant response rating: 31 g ai/ha, scale 0 to 100, 0 is no effect and 100 is complete control
Method in brief: as §2

[7] = tested on: oat, wild; experiment: Test C pre-/postemergence herbicide test; type: in vivo, Avena fatua; conditions: Preemergence
Method in brief: as §2

[8] = Postemergence, 125 g ai/ha, 0 to 100 scale, 0 no effect, 100 complete control
[9] = Postemergence, 500 g ai/ha, 0 to 100 scale (0 no effect, 100 complete control)
[10] = Preemergence, 125 g ai/ha, visual rating on 0 to 100 scale (0 no effect, 100 complete control)
[11] = preemergence, 500 g ai/ha, 0 to 100 scale (0 no effect, 100 complete control)
[12] = preemergence, 500 g ai/ha, 0 to 100 scale
[13] = scale 0 to 100 (0 no effect, 100 complete control)
[14] = 125 g ai/ha, scale 0 to 100 (0 no effect, 100 complete control)
[15] = 250 g ai/ha, scale 0 to 100 (0 no effect, 100 complete control)
[16] = scale 0 to 100, 0 is no effect and 100 is complete control
[17] = Postemergence, 1000 g ai/ha, 0 to 100 scale (0 no effect, 100 complete control)
[18] = Preemergence, 1000 g ai/ha, visual rating on 0 to 100 scale (0 no effect, 100 complete control), approx. 10 days

SMILES | Plant response rating, Barnyardgrass [1, 8] | Plant response rating, Barnyardgrass [1, 9] | Barnyardgrass plant response rating [1, 10] | Plant response rating, Barnyardgrass [1, 11] | Plant response rating, Pigweed [2, 8] | Plant response rating, Pigweed [2, 9] | Pigweed plant response rating [2, 10] | Plant response rating, Pigweed [2, 12] | Corn plant response rating [3, 13] | Plant response rating, Corn ([3]; 62 g ai/ha, scale 0 to 100) | Plant response rating, Corn [3, 14] | Plant response rating, Corn [3, 15] | Plant response rating, Nutsedge, Yellow ([4]; 62 g ai/ha, scale 0 to 100) | Plant response rating, Nutsedge, Yellow [4, 14] | Plant response rating, Ragweed ([5]; 62 g ai/ha, scale 0 to 100) | Plant response rating, Ragweed [5, 14] | Plant response rating, Kochia ([6]; 62 g ai/ha, scale 0 to 100) | Plant response rating, Kochia [6, 14] | Plant response rating, Oat, Wild ([7]; 62 g ai/ha, scale 0 to 100) | Plant response rating, Oat, Wild [7, 14] | also measured
O=C1NCC(c2cccc(Br)c2)C1C(=O)Nc1cccc(F)c1F (stereo not shown) [Compound 64] | 60 | 80 | 80 | 90 | 0 | 30 | 0 | 0 | 0 | 0 | 55 | 60 | 20 | 20 | 0 | 30 | 0 | 20 | 10 | 10 | –
O=C1NCC(c2cccc(Br)c2)C1C(=O)Nc1ccccc1F (stereo not shown) [Compound 66] | 80 | 80 | 80 | 90 | 0 | 0 | 0 | 0 | – | 0 | 10 | 20 | 0 | 0 | 20 | 25 | 0 | 10 | 0 | 0 | Corn plant response rating [3, 16]: 0; Nutsedge, Yellow plant response rating [4]: 0; Ragweed plant response rating [5]: 10; Kochia plant response rating [6]: 0; Oat, Wild plant response rating ([7]; 31 g ai/ha, scale 0 to 100, 0 is no effect and 100 is complete control): 0
Cc1ccccc1NC(=O)C1C(=O)NCC1c1cc(F)c(F)c(F)c1 (racemic) [Compound 35] | – | – | – | – | – | – | – | – | 0 | 0 | 5 | 5 | 0 | 0 | 0 | 0 | 0 | 5 | 0 | 0 | Plant response rating, Barnyardgrass [1, 17]: 90; Plant response rating, Barnyardgrass [1, 18]: 90; Plant response rating, Pigweed [2, 17]: 0; Plant response rating, Pigweed [2, 18]: 0
O=C1NCC(c2cccc(OC(F)(F)F)c2)C1C(=O)Nc1cccc(F)c1F (stereo not shown) [Compound 68] | 70 | 80 | 80 | 90 | 40 | 60 | 0 | 30 | – | 25 | 25 | 50 | 10 | 10 | 0 | 0 | 0 | 0 | – | 0 | Corn plant response rating [3, 16]: 15; Nutsedge, Yellow plant response rating [4]: 10; Ragweed plant response rating [5]: 0; Kochia plant response rating [6]: 0
O=C1NCC(c2cc(F)c(F)c(F)c2)C1C(=O)Nc1ccccc1C(F)(F)F (racemic) [Compound 33] | – | – | – | – | – | – | – | – | 0 | 10 | 20 | 30 | 10 | – | 0 | 0 | 0 | 0 | 0 | 20 | Plant response rating, Barnyardgrass [1, 17]: 90; Plant response rating, Barnyardgrass [1, 18]: 90; Plant response rating, Pigweed [2, 17]: 0; Plant response rating, Pigweed [2, 18]: 0
